This note sets out measurements from patent US9863955B2, “AMPK activator screening method, and AMPK activator” (KYORIN PHARMACEUTICAL CO., LTD., priority 2012, dated 2018).

In one series the test system is human PHB2. The experiment in a line: Real-time PCR of HepG2 cells transfected with siRNA: PHB2. The series is classed as cell-based. The conditions noted are these: 72 hours after transfection (FIG. 1). An excerpt: (§1) Human hepatoma cell line HepG2 cells were transfected with siRNA (Stealth RNAi, Invitrogen) against human PHB1 or human PHB2 using Lipofectamine RNAiMAX (Invitrogen).
(§2) Seventy-two hours after the transfection, RNA was extracted from siRNA transfected cells using RNeasy Mini Kit (Qiagen). The thus obtained RNA was reverse transcribed into a cDNA using High Capacity cDNA Reverse Transcription Kit (Applied Biosystems). The resultant cDNA was subjected to real-time PCR by TaqMan Gene Expression Assays (Applied Biosystems, PHB1: Hs_00855044_gl, PHB2: Hs_00200720_ml) using 7500 Fast Real-Time PCR system (Applied Biosystems), and thus, the influence of the knockdown of PHB1 or PHB2 on the amount of gene expression was detected.
For orientation: In qPCR the cycle at which signal appears reflects the starting amount.

For a further series, the system named is PHB2. The experiment in a line: Western blotting of HepG2 cells cultured with compound A: PHB2. The series is classed as cell-based, human. The settings on record: various final concentrations, 3 hours culture (FIG. 8). On the procedure: (§3) Compound A was added to a HepG2 cell culture system to various final concentrations, and after culturing the resultant for 3 hours, the cells were lysed in a lysis buffer to obtain a cell extract. The thus obtained cell extract was used for performing SDS-PAGE so as to separate proteins contained in the extract in accordance with their sizes, and the resultant was transferred to a PVDF membrane to detect PHB1, PHB2, AMPKα and phosphorylated AMPKα by Western blotting.

Series [1] has as its target T1, interaction between PHB1 and AMPK (Homo sapiens, UniProt P35232).
T1 construct: purchased Abnova Corp. (GST-PHB1); Calbiochem (AMPK)
T1 sequence (P35232 1-272): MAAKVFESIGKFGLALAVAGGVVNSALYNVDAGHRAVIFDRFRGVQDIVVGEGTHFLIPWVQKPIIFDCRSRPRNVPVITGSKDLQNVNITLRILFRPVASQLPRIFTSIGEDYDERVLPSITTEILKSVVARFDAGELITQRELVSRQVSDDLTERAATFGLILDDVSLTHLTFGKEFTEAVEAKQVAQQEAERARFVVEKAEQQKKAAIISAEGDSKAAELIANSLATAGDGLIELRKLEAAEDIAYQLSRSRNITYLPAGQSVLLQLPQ
Nature of the series: GST pull down assay of GST-PHB1 protein and AMPK in the presence of compound A. The format is binding. The conditions noted are these: compound A final concentration 10 μM, 3 hours at 4° C., Western blotting (FIG. 7). On the procedure:
Specifically, Glutathione Sepharose 4 Fast Flow carrier (GE Healthcare) was bound to each of commercially available GST protein, a GST fusion PHB1 protein (hereinafter also referred to as GST-PHB1 protein) (Abnova Corp.) and a GST fusion PHB2 protein (hereinafter also referred to as the GST-PHB2 protein) (Abnova Corp.) to obtain GST carrier-protein complexes. Each of the GST carrier-protein complexes and AMPK (Calbiochem) were incubated in a NET buffer (0.5% NP-40, 50 mM Tris-HCl pH 7.5, 50 mM sodium chloride, and 5 mM EDTA) for 3 hours at 4° C. for binding. After washing the resultant with a NET buffer, a sample buffer (50 mM Tris-HCl pH 6.8, 2% SDS, 10% glycerin, 1% β-mercaptoethanol, 12.5 mM EDTA, and 0.02% bromophenol blue) was added thereto to prepare a sample. The thus obtained sample was separated by SDS-PAGE, the resultant was transferred to a PVDF membrane and subjected to Western blotting using anti-AMPKα and anti-GST antibodies, so as to detect whether or not AMPK was bound to GST protein, GST-PHB1 protein or GST-PHB2 protein bound to Gluthathione Sepharose to be pulled down.
GST-PHB1 protein (500 ng) was bound to Glutathione Sepharose 4 Fast Flow (10 μL) to obtain a GST carrier-protein complex. […]
In general terms: Immunoblotting shows a protein as a band on a membrane.

The test system of a further series is PHB1. The experiment in a line: Western blotting of HepG2 cells cultured with compound A: PHB1. The settings on record: various final concentrations, 3 hours culture (FIG. 8). The series is classed as cell-based, human. Here is the method:
as §3

A further series concerns AMPKα. The experiment in a line: Western blotting of HepG2 cells cultured with compound A: AMPKα. The format is cell-based, human. The conditions noted are these: various final concentrations, 3 hours culture (FIG. 8). On the procedure: as §3
The subject of another series is ACC. The experiment in a line: Western blotting of HepG2 cells cultured with compound A: ACC. The conditions noted are these: various final concentrations, 3 hours culture (FIG. 8). The series is classed as cell-based, human.
The subject of a further series is human PHB1. Nature of the series: Real-time PCR of HepG2 cells transfected with siRNA: PHB1. The series is classed as cell-based. The conditions noted are these: 72 hours after transfection (FIG. 1).
From the text: as §1, §2

As to “siPHB2: siRNA (Stealth RNAi, Invitrogen) against human PHB2, SEQ ID NO: 3 and 4 (chain 1 UACGAUUCUGUGAUGUGGCGAUCGU; chain 2 ACGAUCGCCACAUCACAGAAUCGUA; Stealth RNAi (Invitrogen), modifications not given here)”, the “amount of transcription of PHB2” value in the series on human PHB2 was “specifically depressed”.
As for `CCCCN1C(=O)CN(Cc2ccc(OC)c(C(=O)NCc3ccc(Oc4ccc(F)cc4)cc3)c2)C1=O` [compound A, 5(2,4-dioxo-3-butylimidazolidin-1-yl)methyl-2-methoxy-N-[4-(4-fluorophenoxy)phenylmethyl]benzamide], the “amount of PHB2” value with PHB2 is “does not remarkably affect”. The “AMPKα pulled down by GST-PHB1 protein” value in series [1] is recorded as “remarkably decreased”. Besides, in the series on PHB1, the “amount of PHB1” value is recorded as “does not remarkably affect”. In the series on AMPKα, the “amount of AMPKα” value is given as “does not remarkably affect” and the “level of phosphorylated AMPKα” value was “increased by compound A in a concentration-dependent manner”. In the series with ACC, the “amount of ACC” value is “does not remarkably affect” and the “level of phosphorylated ACC” value is given as “increased by compound A in a concentration-dependent manner”.
On to “siPHB1: siRNA (Stealth RNAi, Invitrogen) against human PHB1, SEQ ID NO: 1 and 2 (chain 1 UUGGCAAUCAGCUCAGCUGCCUUGG; chain 2 CCAAGGCAGCUGAGCUGAUUGCCAA; Stealth RNAi (Invitrogen), modifications not given here)”, for which, in the series on human PHB1, the “amount of transcription of PHB1” value is “specifically depressed”.
